These results are taken from paper PMC9865601 (2023).

The test system of assay [1] is Htelo-C (DNA, i motif) TAACCCTAACCCTAACCCTAACCCTAA
The assay is described as follows: bio-layer interferometry. The settings on record: 50 mM KCl; 50 mM Tris-HCl, 2% DMSO, 0.05% P20; pH 5.5 (also pH 7.5); tested to 100 µM. On the technique in general: Biolayer interferometry detects binding as a change in optical thickness at a sensor tip.

Assay [2] deals with c-myc (DNA, i motif) TCCCCACCTTCCCCACCCTCCCCACCCTCCCCA
The assay is described as follows: bio-layer interferometry. The settings on record: 50 mM KCl; 50 mM Tris-HCl, 2% DMSO, 0.05% P20; pH 5.5 (also pH 7.5); tested to 100 µM.

For assay [3], the system named is ssDNA (DNA, single strand) GGCATAGTGCGTGGGCG
The assay is described as follows: bio-layer interferometry. The note with it: 50 mM KCl; 50 mM Tris-HCl, 2% DMSO, 0.05% P20; tested up to 100 µM.

For assay [4], the system named is HP-GC (DNA, hairpin) CGCGCGCGTTTTCGCGCGCG
The assay is described as follows: bio-layer interferometry. The note with it: 50 mM KCl; 50 mM Tris-HCl, 2% DMSO, 0.05% P20; tested up to 100 µM.

Assay [5] has as its system DAP-Mut (DNA, single strand) CTACCGCTAACGCCTTCGCTCTCGCTTTC
The assay is described as follows: bio-layer interferometry. The settings on record: 50 mM KCl; 50 mM Tris-HCl, 2% DMSO, 0.05% P20; tested up to 100 µM.

Assay [6] concerns HRAS (DNA, i motif) CGCCCGTGCCCTGCGCCCGCAACCCGA
In words: CD melting, heating ramp, 285 nm. The settings on record: 100 mM KCl; 10 mM LiAsO2Me2, pH 5.5; 2.5 µM oligo, 20 µM IMC-48.

Assay [7] concerns bcl-2 (DNA, i motif) CAGCCCCGCTCCCGCCCCCTTCCTCCCGCGCCCGCCCCT
In words: CD melting, heating ramp, 285 nm. The note with it: 100 mM KCl; 10 mM LiAsO2Me2, pH 5.5; 2.5 µM oligo, 20 µM IMC-48.

Assay [8] relates to HTelo-C (DNA, i motif) TAACCCTAACCCTAACCCTAACCCTAA
In words: CD melting, heating ramp, 285 nm. The note with it: 100 mM KCl; 10 mM LiAsO2Me2, pH 5.5; 2.5 µM oligo, 20 µM IMC-48.

The test system of assay [9] is c-myc (DNA, i motif) TCCCCACCTTCCCCACCCTCCCCACCCTCCCCA
The assay is described as follows: CD melting, heating ramp, 285 nm. The settings on record: 100 mM KCl; 10 mM LiAsO2Me2, pH 5.5; 2.5 µM oligo, 20 µM IMC-48.

`CC(C)CCC[C@@H](C)[C@H]1CC[C@H]2[C@@H]3CC[C@H]4C[C@H](NC(=O)C[N+]5(C)CCCCC5)CC[C@]4(C)[C@H]3CC[C@]12C`: the binding entry in assay [1], in [2], in assay [3], in assay [4] and in [5] was “no” each time. Moreover, the “∆Tm” value in [6] was −1.2 ± 1.1 °C; in assay [7], 0.2 ± 0.4 °C; in assay [8], −1.2 ± 0.5 °C; in assay [9], −0.5 ± 0.1 °C.
